# Results taken from patent US8107711B2, “User interface method and system for management and control of automated image processing in high content screening or high throughput screening” (Vala Sciences, Inc., priority 2008, dated 2012).
# Tested on: IL-8 mRNA
# Assay: IL-8 mRNA assay (Quantigene reagent set) quantified by automated image processing
# Assay type: cell-based
# From the text: Through use of inexpensive reagents and simple protocols a transcription assay can be conducted in which mRNA is synthesized and then captured. The location and number of individual mRNA species captured can be visualized in cells and tissue sections by fluorescence-based detection and quantified by automated image processing.
# For visualization in images, a probe is used which binds to target mRNA species with very high specificity. It is possible to generate probes to virtually any known sequence. Preferably, such probes are hybridized to the target mRNAs in cell or tissue samples that have been fixed and permeabilized. A fluorescent reagent may then added, which binds to the probe. When slides and well plates containing cultured cells are processed in this manner, and viewed with fluorescence microscopy, bright spots (mRNA loci) are apparent that correspond to individual copies of the target mRNA.
# To quantify gene transcription, the mRNA loci can be individually counted for each cell. While this can be done manually, by loading such images in a general purpose image analysis program, manual analysis is very laborious and time consuming due to fatigue and inconsistency between researchers. A convenient, user-friendly, and accurate alternative may be provided by an image processing algorithm, which may be in the form of a Windows® compatible, Java-based software system, specifically engineered for this application. With reference to FIG. 1, for example, such a system identifies individual cells, and quantifies the number of mRNA loci on a per cell basis in fields of view imaged for nuclei (shown in blue with DAPI staining), and for mRNA (shown in green using fluorescent reagents). Results produced by such a system may be input into a quantitative modeling system (such as a spreadsheet process) in order to organize, quantify, model, and present the results for interpretation and analysis.
# FIG. 2 illustrates the performance of an mRNA assay and quantification by an image processing algorithm in an experimental setting, using a Quantigene® reagent set available from Panomics, Inc., Fremont, Calif. and an automated image processing system available from Vala Sciences, Inc. In this assay, cells were exposed to different concentrations of phorbol 12-myristate 13-acetate (PMA), and analyzed for the copy number of IL-8 mRNA. For control cells (exposed to 0 PMA), essentially no IL-8 mRNA were detected (0.05/cell). In contrast, exposure to PMA led to a dramatic increase in the presence of the loci with an EC50 of between 0.1 and 1 ng/ml PMA.
# FIG. 6 illustrates in a general way how an image processing algorithm may operate to obtain results from images in the source folder. An example of one such algorithm designed for processing images of mRNA transcription is the CyteSeer™-ViewRNA process available from Vala Sciences, Inc. The algorithm starts with a nuclear image (such as those in the left panels of FIGS. 1 and 2), and identifies all of the nuclei within the field of view. A nuclear mask for each cell is established. […] One or more sets of experimental data may then be calculated by the automated image processing system, on a per cell basis, using the result images or masks. Preferably, these experimental data are presented and arranged according to a file convention and are placed into one or more files that can be transported, loaded, or otherwise made available to a quantitative modeling system (for example, a spreadsheet process). […]
compound,measurement,setting,value
"CCCCCCCCCCCCCC(=O)O[C@@H]1[C@@H](C)[C@@]2(O)[C@@H](C=C(CO)C[C@]3(O)C(=O)C(C)=C[C@@H]23)[C@@H]2C(C)(C)[C@]12OC(C)=O [PMA, phorbol 12-myristate 13-acetate]",RNA spot count,"0.1 ng/ml PMA, well E15",14.3 spots/cell
same,fold increase in Area Rm,1 ng/ml PMA vs control well C15,3000 fold
same,RNA spot count,"1 ng/ml PMA, well G15",84.1 spots/cell
same,"Area Rm, the average area, per cell, of the RNA mask","1 ng/ml PMA, well G15 (control well C15 <1)",> 1100
same,"fold increase in TII Ri Rm, the total intensity of the spots/cell",PMA vs control (Table in FIG. 12),8000 fold
